Test results: US20220273659A1, “HETEROCYCLIC COMPOUNDS AS KINASE INHIBITORS” (NUVATION BIO INC., priority 2019, published 2022)

Key:
[1] = test system: MCF-7 breast adenocarcinoma cells; assay: Cancer cell proliferation assay, single agent (cell viability); type: cell-based; details: Homo sapiens, MCF7, Table 4; Rb positive; treatment 144 Hr with medium change at 72 Hr; Cell Titer-Glo or resazurin
Protocol: (§1) The effects of test compounds were studied in three breast cancer cell lines of different subtype. The cancer cells (Table 3) were harvested during the logarithmic growth period and counted. Cell concentrations were adjusted to the appropriate number with respective medium and 90 μL cell suspensions were added to 96-well plates. After cells were seeded, the plates were shaken gently to distribute cells evenly and incubated at 37° C., 5% CO2 on day 1.
(§2) Cells were treated with test compounds at 7 to 9 concentrations within a desired concentration range (e.g. 1.1 nM-10 μM) on day 2 by series diluting the test compound stock solution (10 mM in DMSO) with culture medium. Treatment duration was 24 Hr for BT-549 cells and 144 Hr (with a medium change at 72 Hr) for MCF-7 and DU4475 cells. Cell viability was assessed by Cell Titer-Glo® as recommended by Promega (Cat. No.: G7572), or by resazurin assay (Sigma Aldrich, Cat. No.: R7017) post treatment.
(§3) Cell viability data were plotted using GraphPad Prism (GraphPad Software, Inc., San Diego, Calif.). In addition, a nonlinear regression model with a sigmoidal dose response and variable slope within GraphPad Prism was used to calculate the IC50 value of individual test compounds.

CDK4 = target: T1, CDK4 (Homo sapiens, UniProt P11802); assay: In vitro kinase inhibition IC50, luminescence (ADP Glo), retinoblastoma substrate; type: biochemical; details: read-out: CDK4/D1 IC50
T1 construct: purchased Invitrogen PR8064A
T1 sequence (P11802 whole entry): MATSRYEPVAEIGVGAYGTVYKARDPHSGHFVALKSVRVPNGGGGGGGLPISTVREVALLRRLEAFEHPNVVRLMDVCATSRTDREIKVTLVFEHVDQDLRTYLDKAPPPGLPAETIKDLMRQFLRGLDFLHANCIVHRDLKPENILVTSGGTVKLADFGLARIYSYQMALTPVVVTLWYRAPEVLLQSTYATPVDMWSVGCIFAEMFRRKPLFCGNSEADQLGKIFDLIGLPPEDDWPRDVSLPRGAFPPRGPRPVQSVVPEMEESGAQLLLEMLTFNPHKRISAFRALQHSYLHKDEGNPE
T1 sequence (P24385 whole entry partner): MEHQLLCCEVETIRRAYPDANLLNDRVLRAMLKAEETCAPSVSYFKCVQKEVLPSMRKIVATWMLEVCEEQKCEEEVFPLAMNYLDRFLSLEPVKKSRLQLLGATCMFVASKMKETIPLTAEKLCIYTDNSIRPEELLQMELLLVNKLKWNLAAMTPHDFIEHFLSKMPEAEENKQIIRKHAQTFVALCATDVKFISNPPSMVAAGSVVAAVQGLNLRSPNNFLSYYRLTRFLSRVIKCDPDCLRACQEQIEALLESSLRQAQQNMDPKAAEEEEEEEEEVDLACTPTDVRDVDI
Protocol: (§4) IC50 values of compounds against CDK4 and CDK6 were determined by luminescence using retinoblastoma as substrate. Kinase assays were performed in kinase buffer (#PV6135, Invitrogen Life Technologies, Grand Island, N.Y.) where total reaction volume was […] in 96-well half area white plates (#3693, Costar). One microliter of 25×test compounds at specific concentrations (e.g., final concentration range: 0.1 nM-200 nM) was mixed with 10 μL of 2.5×kinase (5 nM, CDK4 #PR8064A and CDK6 #PR8422B, Invitrogen) solution and 14 μL of 4× mixed solution with retinoblastoma (1 μM, #12-439, EMD Millipore, Hayward, Calif.) and ATP (25 μM, #V7038, Promega, Madison, Wis.). The plates were covered and incubated for 2H at room temperature. At the end of incubation, 25 μL of stop solution—ADP Glo reagent (#V7002, Promega) was added. After incubation for 45 min at room temperature, 50 μL of detection reagent (##V7002, Promega) was added. Readings were taken at 15 min and 45 min incubation after detection reagent was added in a Synergy Neo Plate reader (BioTek, Winooski, Vt.) at single excitation of 340 nm and Dual emission at 495 nm and 520 nm respectively. The following equations were used in the CDK4 and CDK6 assay data analysis. Percent inhibition (100-% activity) was fitted to the “four-parameter logistic model” in XLfit for determination of IC50 values.
(§5) Percent conversion of enzyme=100−{(RLUNo Drug−No enzyme*100)/RLUNo drug+Enzyme} Equation 1:
(§6) Percent conversion at each data point=100−{(RLUAverage(Drug+enzyme)*100)!RLUNo drug+Enzyme} Equation 2:
(§7) Percent Inhibition=100*(% Conversioneach data point/% ConversionEnzyme) Equation 3: […]

CDK6 = target: T2, CDK6 (Homo sapiens, UniProt Q00534); assay: as above; type: biochemical; details: read-out: CDK6/D1 IC50
T2 construct: purchased Invitrogen PR8422B
T2 sequence (Q00534 whole entry): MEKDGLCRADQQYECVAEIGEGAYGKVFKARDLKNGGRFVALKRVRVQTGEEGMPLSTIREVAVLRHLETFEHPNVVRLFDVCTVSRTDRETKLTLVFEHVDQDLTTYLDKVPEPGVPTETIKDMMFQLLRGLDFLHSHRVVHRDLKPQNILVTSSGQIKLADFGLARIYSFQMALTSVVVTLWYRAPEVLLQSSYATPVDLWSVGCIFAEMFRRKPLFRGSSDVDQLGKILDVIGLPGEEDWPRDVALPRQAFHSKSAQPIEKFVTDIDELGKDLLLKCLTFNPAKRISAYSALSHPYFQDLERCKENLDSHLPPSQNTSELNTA
T2 sequence (P24385 whole entry partner): as the sequence (P24385 whole entry partner) above
Protocol: as §4, §5, §6, §7

FMS kinase = target: T3, FMS kinase (Homo sapiens, UniProt P07333); assay: LanthaScreen Eu Kinase Binding Assay (ATP, fluorescent-PolyGT substrate); type: biochemical
T3 construct: purchased Invitrogen (Life Technologies)
T3 sequence (P07333 20-972): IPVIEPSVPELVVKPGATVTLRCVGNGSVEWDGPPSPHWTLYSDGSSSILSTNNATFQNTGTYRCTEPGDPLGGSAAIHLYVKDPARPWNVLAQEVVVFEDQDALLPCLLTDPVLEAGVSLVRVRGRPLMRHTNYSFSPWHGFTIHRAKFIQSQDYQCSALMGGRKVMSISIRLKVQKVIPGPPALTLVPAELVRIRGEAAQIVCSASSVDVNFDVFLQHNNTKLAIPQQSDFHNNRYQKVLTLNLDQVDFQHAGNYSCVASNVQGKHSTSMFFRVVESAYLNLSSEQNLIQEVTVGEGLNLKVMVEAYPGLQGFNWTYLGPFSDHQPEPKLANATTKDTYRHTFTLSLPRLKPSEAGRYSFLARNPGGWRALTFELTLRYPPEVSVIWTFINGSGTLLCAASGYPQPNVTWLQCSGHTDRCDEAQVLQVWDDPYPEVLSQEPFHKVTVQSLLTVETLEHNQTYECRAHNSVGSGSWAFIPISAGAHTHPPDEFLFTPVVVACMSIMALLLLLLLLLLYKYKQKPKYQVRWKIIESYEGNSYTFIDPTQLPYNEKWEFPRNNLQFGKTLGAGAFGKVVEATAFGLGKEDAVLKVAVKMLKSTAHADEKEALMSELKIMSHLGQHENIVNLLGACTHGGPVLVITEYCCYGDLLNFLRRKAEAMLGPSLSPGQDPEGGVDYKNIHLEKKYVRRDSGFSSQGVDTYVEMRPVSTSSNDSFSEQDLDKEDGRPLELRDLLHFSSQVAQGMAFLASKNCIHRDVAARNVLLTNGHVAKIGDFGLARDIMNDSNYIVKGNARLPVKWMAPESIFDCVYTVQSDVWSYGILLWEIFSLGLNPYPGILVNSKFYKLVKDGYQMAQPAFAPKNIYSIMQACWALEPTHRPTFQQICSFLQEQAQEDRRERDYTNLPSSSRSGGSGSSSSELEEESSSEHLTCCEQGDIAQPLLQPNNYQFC
Protocol: IC50 values of compounds against FMS kinase were determined by LanthaScreen™ Eu Kinase Binding Assay at Invitrogen (Life Technologies Grand Island, N.Y.) where total reaction volume was 10 μL in low-volume 384-well plates (#4511, Corning). Serially diluted compounds (3-fold) were incubated with kinase (1.25 nM) for 10 min, following which a mixture of ATP (10 μM) (#A1852, Sigma, St-Louis, Mo.) and fluorescent-PolyGT substrate (200 nM) (#PV3610, Invitrogen, Life Technologies Grand Island, N.Y.) was added and incubated in dark at room temperature for 1H. After 1H, 10 μL stop solution containing Terbium labeled antibody (4 nM) (#PV3529, Invitrogen, Life Technologies Grand Island, N.Y.) and EDTA (#E5134, Sigma, St-Louis, Mo.) (20 mM) in TR-FRET dilution buffer (#PV3574, Invitrogen, Life Technologies Grand Island, N.Y.) was added. Readings were taken in a Synergy Neo Plate reader (BioTek, Winooski) at single excitation of 340 nm and Dual emission at 495 nm and 520 nm respectively.
The following equations were used for LanthaScreen Eu Kinase Binding Assay Data Analysis. Percent inhibition (100-% activity) was fitted to the “four-parameter logistic model” in XLfit for determination of IC50 values.

[2] = test system: DU4475 breast carcinoma cells; assay: Cancer cell proliferation assay, single agent (cell viability); type: cell-based; details: Homo sapiens, DU-4475; Table 4; Rb negative; treatment 144 Hr with medium change at 72 Hr; Cell Titer-Glo or resazurin
Protocol: as §1, §2, §3

IC50 [1] | IC50 (CDK4) | IC50 (CDK6) | IC50 (FMS kinase) | IC50 [2] | SMILES
1420 nM | > 200 nM | > 200 nM | 74 nM |  | N#Cc1cc2cnc(Nc3cccc(S(=O)(=O)N4CCC(O)CC4)c3)nc2n(C2CCCC2)c1=O [Compound No. 18, 8-cyclopentyl-2-((3-((4-hydroxypiperidin-1-yl)sulfonyl)phenyl)amino)-7-oxo-7,8-dihydropyrido[2,3-d]pyrimidine-6-carbonitrile]
793 nM | 9.5 nM | 6 nM |  | 660 nM | CN(C)CCN1Cc2cc(Nc3ncc4cc(C#N)c(=O)n(C5CCCC5)c4n3)ccc2C(C)(C)C1 [Compound No. 76, 8-cyclopentyl-2-((2-(2-(dimethylamino)ethyl)-4,4-dimethyl-1,2,3,4-tetrahydroisoquinolin-7-yl)amino)-7-oxo-7,8-dihydropyrido[2,3-d]pyrimidine-6-carbonitrile]
1590 nM | 15 nM | 28 nM |  | > 8430 nM | CN(C)CCN1CCC(n2ccc(Nc3ncc4cc(C#N)c(=O)n(C5CCCC5)c4n3)cc2=O)CC1 [Compound No. 73, 8-cyclopentyl-2-((1-(1-(2-(dimethylamino)ethyl)piperidin-4-yl)-2-oxo-1,2-dihydropyridin-4-yl)amino)-7-oxo-7,8-dihydropyrido[2,3-d]pyrimidine-6-carbonitrile]
138 nM | 18 nM | 3.5 nM | 3.5 nM |  | N#Cc1cc2cnc(Nc3cc(F)c(N4CCNCC4)c(F)c3)nc2n(C2CCCC2)c1=O [Compound No. 27, 8-cyclopentyl-2-((3,5-difluoro-4-(piperazin-1-yl)phenyl)amino)-7-oxo-7,8-dihydropyrido[2,3-d]pyrimidine-6-carbonitrile]
 |  |  | 8 nM |  | C[C@H]1CC[C@H](n2c(=O)c(C#N)cc3cnc(Nc4ccc5c(c4)C(=O)NCC5)nc32)CC1 [Compound No. 7, 8-((1r,4r)-4-methylcyclohexyl)-7-oxo-2-((1-oxo-1,2,3,4-tetrahydroisoquinolin-7-yl)amino)-7,8-dihydropyrido[2,3-d]pyrimidine-6-carbonitrile]
570 nM | 91 nM | 42 nM | 1 nM |  | N#Cc1cc2cnc(Nc3cnn(C4CCC(O)CC4)c3)nc2n(C2CCCC2)c1=O (centres unmarked) [Compound No. 51, 8-cyclopentyl-2-((1-(4-hydroxycyclohexyl)-1H-pyrazol-4-yl)amino)-7-oxo-7,8-dihydropyrido[2,3-d]pyrimidine-6-carbonitrile]
6020 nM | > 200 nM | > 200 nM | 7 nM |  | CN1CCN(C(=O)c2cccc(Nc3ncc4cc(C#N)c(=O)n(C5CCCC5)c4n3)c2)CC1 [Compound No. 16, 8-cyclopentyl-2-((3-(4-methylpiperazine-1-carbonyl)phenyl)amino)-7-oxo-7,8-dihydropyrido[2,3-d]pyrimidine-6-carbonitrile]
594 nM | 14 nM | 4 nM |  | 1260 nM | CN(C)CCN1CCc2ccc(Nc3ncc4cc(C#N)c(=O)n(C5CCCC5)c4n3)cc2C1 [Compound No. 62, 8-cyclopentyl-2-((2-(2-(dimethylamino)ethyl)-1,2,3,4-tetrahydroisoquinolin-7-yl)amino)-7-oxo-7,8-dihydropyrido[2,3-d]pyrimidine-6-carbonitrile]
3230 nM | > 200 nM | > 200 nM | 53 nM |  | CN1CCN(S(=O)(=O)c2cccc(Nc3ncc4cc(C#N)c(=O)n(C5CCCC5)c4n3)c2)CC1 [Compound No. 17, 8-cyclopentyl-2-((3-((4-methylpiperazin-1-yl)sulfonyl)phenyl)amino)-7-oxo-7,8-dihydropyrido[2,3-d]pyrimidine-6-carbonitrile]
305 nM | > 200 nM | 131 nM |  | 250 nM | N#Cc1cc2cnc(Nc3ccc4c(c3)CCCNC4=O)nc2n(C2CCCC2)c1=O [Compound No. 82, 8-cyclopentyl-7-oxo-2-((1-oxo-2,3,4,5-tetrahydro-1H-benzo[c]azepin-7-yl)amino)-7,8-dihydropyrido[2,3-d]pyrimidine-6-carbonitrile]
1050 nM | > 200 nM | > 200 nM | 99 nM |  | N#Cc1cc2cnc(Nc3cccc(S(=O)(=O)N4CCOCC4)c3)nc2n(C2CCCC2)c1=O [Compound No. 20]
1060 nM | 84 nM | 24 nM |  | 820 nM | N#Cc1cc2cnc(Nc3ccc4c(c3)CCCC(=O)N4)nc2n(C2CCCC2)c1=O [Compound No. 83, 8-cyclopentyl-7-oxo-2-((2-oxo-2,3,4,5-tetrahydro-1H-benzo[b]azepin-7-yl)amino)-7,8-dihydropyrido[2,3-d]pyrimidine-6-carbonitrile]
452 nM | 132 nM | 43 nM |  | 4560 nM | N#Cc1cc2cnc(Nc3cnc4c(c3)CNCC4)nc2n(C2CCCC2)c1=O [Compound No. 77, 8-cyclopentyl-7-oxo-2-((5,6,7,8-tetrahydro-1,6-naphthyridin-3-yl)amino)-7,8-dihydropyrido[2,3-d]pyrimidine-6-carbonitrile]
598 nM | 7 nM | 5.5 nM |  | 1050 nM | COCCN1CCc2cc(Nc3ncc4cc(C#N)c(=O)n(C5CCCC5)c4n3)ccc2C1 [Compound No. 75, 8-cyclopentyl-2-((2-(2-methoxyethyl)-1,2,3,4-tetrahydroisoquinolin-6-yl)amino)-7-oxo-7,8-dihydropyrido[2,3-d]pyrimidine-6-carbonitrile]
751 nM | 33 nM | 15 nM |  | 1670 nM | N#Cc1cc2cnc(Nc3ccc4c(c3)CNCCC4)nc2n(C2CCCC2)c1=O [Compound No. 78, 8-cyclopentyl-7-oxo-2-((2,3,4,5-tetrahydro-1H-benzo[c]azepin-8-yl)amino)-7,8-dihydropyrido[2,3-d]pyrimidine-6-carbonitrile]
1840 nM | > 147 nM | 38 nM |  | 4060 nM | N#Cc1cc2cnc(Nc3ccc4c(c3)C(=O)NCCC4)nc2n(C2CCCC2)c1=O [Compound No. 79, 8-cyclopentyl-7-oxo-2-((1-oxo-2,3,4,5-tetrahydro-1H-benzo[c]azepin-8-yl)amino)-7,8-dihydropyrido [2,3-d]pyrimidine-6-carbonitrile]

SMILES | IC50 [1] | IC50 (CDK4) | IC50 (CDK6) | IC50 (FMS kinase) | IC50 [2]
CC1CCN(c2ccc(Nc3ncc4cc(C#N)c(=O)n(C5CCCC5)c4n3)cc2)CC1 [Compound No. 25, 8-cyclopentyl-2-((4-(4-methylpiperidin-1-yl)phenyl)amino)-7-oxo-7,8-dihydropyrido[2,3-d]pyrimidine-6-carbonitrile] | > 30000 nM | > 200 nM | 38 nM | 13 nM | 
